What all share (type): functional
The test system of test [1] is Pseudomonas aeruginosa. Put plainly: Antimicrobial activity against Pseudomonas aeruginosa ATCC 9027 after 24 hr by serial microdilution method. Particulars: ATCC 9027, 24 h. For orientation: Broth dilution looks for growth in wells or tubes with falling amounts of substance.
Test [2] has as its system Streptococcus pyogenes. Put plainly: Antimicrobial activity against Streptococcus pyogenes ATCC 176 at 105 ug/disc after 24 hr by disc diffusion method. Conditions: ATCC 176, 24 h, read-out: IZ. Background: Agar diffusion results depend on both activity and mobility in agar.
Test [3] relates to Escherichia coli. As to the kind of experiment: Antimicrobial activity against Escherichia coli 111 after 24 hr by serial microdilution method. Particulars: Escherichia coli, 111, 24 h.
Test [4] has as its system Candida albicans. Put plainly: Antimicrobial activity against Candida albicans ATCC 1213 by serial microdilution method.
The test system of test [5] is Salmonella enteritidis. Put plainly: Antimicrobial activity against Salmonella enterica subsp. enterica serovar Enteritidis ATCC 13076 at 105 ug/disk after 24 hr by disk diffusion method. Conditions: ATCC 13076, 24 h, read-out: IZ.
Test [6] concerns Staphylococcus aureus. Put plainly: Antimicrobial activity against Staphylococcus aureus ATCC 29213 after 24 hr by serial microdilution method. Conditions: ATCC 29213, 24 h.
Test [7] deals with Streptococcus pyogenes. Put plainly: Antimicrobial activity against Streptococcus pyogenes ATCC 176 after 24 hr by serial microdilution method. Conditions: ATCC 176, 24 h.
For test [8], the system named is Escherichia coli. Put plainly: Antimicrobial activity against Escherichia coli 111 at 105 ug/disk after 24 hr by disk diffusion method. Conditions: Escherichia coli, 111, 24 h; read-out: IZ.
Test [9] deals with Bacillus subtilis. Put plainly: Antimicrobial activity against Bacillus subtilis ATCC 6633 at 105 ug/disk after 24 hr by disk diffusion method. Conditions: ATCC 6633, 24 h, read-out: IZ.
Test [10] has as its system Cyberlindnera jadinii. Put plainly: Antimicrobial activity against Cyberlindnera jadinii KUEN 1031 at 105 ug/disc after 48 hr by disk diffusion method. Particulars: Williopsis jadinii, KUEN 1031, 48 h; read-out: IZ.
The subject of test [11] is Salmonella enteritidis. As to the kind of experiment: Antimicrobial activity against Salmonella enterica subsp. enterica serovar Enteritidis ATCC 13076 after 24 hr by serial microdilution method. Particulars: ATCC 13076, 24 h.
Test [12] concerns Staphylococcus aureus. Put plainly: Antimicrobial activity against Staphylococcus aureus ATCC 29213 at 105 ug/disc after 24 hr by disk diffusion method. Conditions: ATCC 29213, 24 h, read-out: IZ.
Test [13] relates to Pseudomonas aeruginosa. As to the kind of experiment: Antimicrobial activity against Pseudomonas aeruginosa ATCC 9027 at 105 ug/disk after 24 hr by disk diffusion method. Conditions: ATCC 9027, 24 h, read-out: IZ.
The subject of test [14] is Candida albicans. As to the kind of experiment: Antimicrobial activity against Candida albicans ATCC 1213 at 105 ug/disk after 48 hr by disk diffusion method. Conditions: ATCC 1213, 48 h, read-out: IZ.
Test [15] deals with Bacillus cereus. Put plainly: Antimicrobial activity against Bacillus cereus DSM 4312 after 24 hr by serial microdilution method. Conditions: DSM 4312, 24 h.
For test [16], the system named is Proteus vulgaris. Put plainly: Antimicrobial activity against Proteus vulgaris KUEN 1329 after 24 hr by serial microdilution method. Conditions: KUEN 1329, 24 h.
The test system of test [17] is Cyberlindnera jadinii. As to the kind of experiment: Antimicrobial activity against Cyberlindnera jadinii KUEN 1031 serial microdilution method. Particulars: Williopsis jadinii.
Test [18] concerns Pseudomonas aeruginosa. As to the kind of experiment: Antimicrobial activity against Pseudomonas aeruginosa ATCC 27859 at 105 ug/disk after 24 hr by disk diffusion method. Conditions: ATCC 27859, 24 h, read-out: IZ.
Test [19] concerns Proteus vulgaris. As to the kind of experiment: Antimicrobial activity against Proteus vulgaris KUEN 1329 at 105 ug/disk after 24 hr by disk diffusion method. Conditions: KUEN 1329, 24 h, read-out: IZ.
The subject of test [20] is Bacillus subtilis. As to the kind of experiment: Antimicrobial activity against Bacillus subtilis ATCC 6633 after 24 hr by serial microdilution method. Conditions: ATCC 6633, 24 h.
Test [21] concerns Bacillus cereus. As to the kind of experiment: Antimicrobial activity against Bacillus cereus DSM 4312 at 105 ug/disk after 24 hr by disk diffusion method. Particulars: DSM 4312, 24 h, read-out: IZ.
The subject of test [22] is Pseudomonas aeruginosa. Put plainly: Antimicrobial activity against Pseudomonas aeruginosa ATCC 27859 after 24 hr by serial microdilution method. Conditions: ATCC 27859, 24 h.

In brackets after ≈: the same amount, converted by molar mass.

By MIC is commonly meant the least concentration at which growth counts as inhibited. A lower MIC goes with greater potency. For `COc1ccccc1C(=O)CC(Sc1ccccc1)c1ccco1` (stereo not given), the minimal inhibitory concentration (MIC) was 31.2 mg/L (≈ 92.3 µM) in test [1]; 62.5 mg/L (≈ 185 µM) in [3]; 125 mg/L (≈ 369 µM) in test [4]; 7.81 mg/L (≈ 23.1 µM) in test [6]; 31.2 mg/L (≈ 92.3 µM) in test [7]; 15.6 mg/L (≈ 46.2 µM) in test [11]. Moreover, the minimal inhibitory concentration (MIC) in [15] was found to be 31.2 mg/L (≈ 92.3 µM); in [16] it was 31.2 mg/L (≈ 92.3 µM); in test [17], 125 mg/L (≈ 369 µM); in [20] it was 31.2 mg/L (≈ 92.3 µM); in test [22], 62.5 mg/L (≈ 185 µM). For the same compound, the zone of inhibition at 105 µg/disc in test [2] worked out at 15 mm; in test [5] it was 18 mm; in test [8] it was 13 mm; in test [9], 14 mm; in test [10], 14 mm; in test [12] it was 17 mm. Moreover, the zone of inhibition at 105 µg/disc in [13] is 15 mm; in test [14], 17 mm; in [18] it was 15 mm; in test [19] it was 15 mm; in test [21], 10 mm.
Consider `O=C(CC(Sc1ccccc1)c1ccco1)c1cccc(Cl)c1` (stereo not given), for which the minimal inhibitory concentration (MIC) in test [1] was 15.6 mg/L (≈ 45.6 µM); in test [3], > 125 mg/L; in [4], 15.6 mg/L (≈ 45.6 µM); in test [6], 31.2 mg/L (≈ 91.1 µM); in test [7], 31.2 mg/L (≈ 91.1 µM); in test [11], 15.6 mg/L (≈ 45.6 µM). Besides, the minimal inhibitory concentration (MIC) in test [15] came out at 31.2 mg/L (≈ 91.1 µM); in test [16] it was 31.2 mg/L (≈ 91.1 µM); in test [17], 15.6 mg/L (≈ 45.6 µM); in [20], 31.2 mg/L (≈ 91.1 µM); in [22], 62.5 mg/L (≈ 182 µM). The zone of inhibition at 105 µg/disc is 14 mm in test [2]; 19 mm in test [5]; 14 mm in test [9]; 15 mm in [10]; 16 mm in test [12]; 15 mm in [13]. In addition, the zone of inhibition at 105 µg/disc was determined as 17 mm in [14], 16 mm in [18], 17 mm in [19] and 11 mm in test [21].
On to `O=C(CC(Sc1ccccc1)c1ccco1)c1ccccc1Br` (stereo not given), for which the minimum inhibitory concentration (MIC) in test [1] is > 125 mg/L; in test [3] it was 62.5 mg/L (≈ 161 µM); in [4], > 125 mg/L; in [6] it was 7.81 mg/L (≈ 20.2 µM); in [7] it was > 125 mg/L; in test [11], > 125 mg/L. Besides, the MIC was 31.2 mg/L (≈ 80.7 µM) in test [15]; 62.5 mg/L (≈ 161 µM) in test [16]; > 125 mg/L in test [17]; 31.2 mg/L (≈ 80.7 µM) in test [20]; 31.2 mg/L (≈ 80.7 µM) in test [22]. The zone of inhibition at 105 µg/disc in [2] amounted to 13 mm; in test [5] it was 15 mm; in test [8], 10 mm; in [9] it was 15 mm; in [10], 15 mm; in test [12], 17 mm. The zone of inhibition at 105 µg/disc was found to be 15 mm in test [13]; 17 mm in test [14]; 16 mm in [18]; 16 mm in test [19]; 12 mm in test [21].

The values above are taken from ChEMBL document CHEMBL3046841, “The synthesis and screening of the antimicrobial activity of some novel 3-(furan-2-yl)-1-(aryl)-3-(phenylthio) propan-1-one derivatives” (2011).
